In US20110059909A1, “METHODS FOR TREATING INFLAMMATORY DISORDERS” (priority 2004, published 2011):

How the values were obtained:
small GTPase Ras = assay: Quantification of Ras activation (GST-Raf-1 RBD pull-down) in primary astrocytes; assay type: cell-based, rat
Description: After stimulation, primary astrocytes in 6-well plates were washed with ice cold PBS and lysed in membrane lysis buffer (MLB; 0.5 ml of 25 mM HEPES, pH 7.5, 150 mM NaCl, 1% Igepal CA-630, 0.25% sodium deoxycholate, 10% glycerol, 10 mM MgCl2, 1 mM EDTA, 25 mM NaF, 1 mM of sodium orthovanadate, and EDTA free Complete™ protease inhibitor cocktail). After centrifugation (5,000×g) at 4° C. for 5 min, supernatant was used for Ras activation assay. One hundred μg of supernatant was used for binding with agarose conjugated Ras-binding domain (RBD) of Raf-1 which was expressed in BL21 (Invitrogen), Escherichia coli strain, transformed by pGEX-2T-GST-RBD in the presence of 0.1 mM of IPTG as described previously (Herrmann et al., 1995). The binding reaction was performed at 4° C. for 30 min in MLB. Following washing with MLB three times, Ras-RBD complex were denatured by adding of 2×SDS sample buffer. Ras protein was identified by western blot analysis with Ras antibodies from Upstate Biotechnology.

rat SCI model = assay: BBB locomotor rating, rat SCI model; assay type: in vivo
Source text: Sprague-Dawley female rats (225-250 g weight) were purchased (Harlan laboratories, Durham, N.C.) for induction of SCI. All rats were given water and food pellets ad libitum and maintained in accordance with the ‘Guide for the Care and Use of Laboratory Animals’ of the US Department of Health and Human Services (National Institutes of Health, Bethesda, Md., USA). The inventors have used a clinically relevant weight-drop device for the induction of SCI in rats as described earlier (Gruner, 1992). Briefly, rats were anesthetized by intraperitoneal (i.p.) administration of ketamine (80 mg/kg) plus xylazine (10 mg/kg) followed by laminectomy at T12. While the spine was immobilized with a stereotactic device, injury (30 g/cm force) was induced by dropping a weight of 5 gm from a height of 6 cm onto an impounder gently placed on the spinal cord. Sham operated animals underwent laminectomy only. Upon recovery from anesthesia, animals were evaluated neurologically and monitored for food and water intake. However, no prophylactic antibiotics or analgesics were used in order to avoid their possible interactions with the experimental therapy of SCI.
Assessment of neurological (functional) recovery was performed by an open-field test using the 21-point Basso, Beattie, Bresnahan (BBB) locomotor rating scale (Basso et al., 1996) until Day 15 post-SCI. […]

NF-κB = NF-κB DNA binding, electrophoretic mobility shift assay; assay type: cell-based, rat
Description: Nuclear extracts from cells (1×10^7 cells) were prepared using a previously published method (Dignam et al., 1983) with slight modifications. Cells were harvested, washed twice with ice-cold TBS, and lysed in 400 μl of buffer A containing 10 mM KCl, 2 mM MgCl2, 0.5 mM dithiothreitol, protease inhibitor cocktail (Sigma), and 0.1% Nonidet P-40 in 10 mM HEPES, pH 7.9 for 10 min on ice. Following centrifugation at 5,000×g for 10 min, the pelleted nuclei were washed with buffer A without Nonidet P-40, and resuspended in 40 μl of buffer B containing 25% (v/v) glycerol, 0.42M NaCl, 1.5 mM MgCl2, 0.2 mM EDTA, 0.5 mM dithiothreitol, and Complete™ protease inhibitor cocktail (Roche) in 20 mM HEPES, pH 7.9 for 30 min on ice. The lysates were centrifuged at 15,000×g for 15 min and the supernatants containing the nuclear proteins were stored at −70° C. until use. Ten μg of nuclear proteins was used for the electrophoretic mobility shift assay for detection of NF-κB DNA binding activities. DNA-protein binding reactions were carried out at room temperature for 20 min in 10 mM Trizma base (pH 7.9), 50 mM NaCl, 5 mM MgCl2, 1 mM EDTA, 1 mM dithiothreitol, 1 μg poly (dI-dC), 5% (v/v) glycerol, and approximately 0.3 pmol of NF-κB probe (Santa Cruz Biotech) labeled with DIG-ddUTP using terminal deoxynucleotidyl transferase (Roche). […]

GalT-2 = GalT-2 protein level by immunoblot after antisense transfection; assay type: cell-based, rat; settings: 48 h after transfection, 200 nM oligo
Description: For iNOS protein, the cells were washed with cold Tris buffered saline (TBS; 20 mM Trizma base, and 137 mM NaCl, pH 7.5), lysed in 1×SDS sample loading buffer (62.5 mM Trizma base, 2% w/v SDS, 10% glycerol), following sonication and centrifugation at 15,000×g for 5 min, the supernatant was used for the iNOS western immunoblot assay. The protein concentration of samples was determined with the detergent compatible protein assay reagent (Bio-Rad Laboratories, CA) using bovine serum albumin (BSA) as the standard. Sample was boiled for 3 min with 0.1 volumes of 10% β-mercaptoethanol and 0.5% bromophenol blue mix. […] The membranes were detected by autoradiography using ECL-plus (Amersham Pharmacia Biotech) after washing with TBST buffer.
A 20-mer antisense oligonucleotide of the following sequence (5′-CGCTTGAGCGCAGACATCTT-3′, SEQ ID NO:1) targeted against rat lactosylceramide synthase (GalT-2) were synthesized by Integrated DNA Technology. […] Cells were counted and plated a day before transfection and the following day were treated with Oligofectamine (Invitrogen)-oligonucleotide complexes (200 nM oligo) under serum free conditions. 48 h following transfection, the protein levels of GalT-2 were analyzed using polyclonal antibodies raised against rat GalT-2 (Abjent Inc., CA). […]

Question: How did the “LPS/IFNγ-mediated activation of Ras” value (small GTPase Ras; PDMP 50 μM 0.5 h, LPS/IFNγ 5 min) turn out when `CCCCCCCCCC(=O)NC(CN1CCOCC1)C(O)c1ccccc1.Cl` [PDMP, D-threo-1-Phenyl-2-decanoylamino-3-morpholino-1-propanol.HCl] was run?
Answer: Its value is “reduced”.

Question: What about the “TNFα-induced Ras activation” value (small GTPase Ras; pretreated 0.5 h, TNFα) of the same compound?
Answer: The value was “attenuated”.

Question: What about the BBB score (rat SCI model; Day 3 post-SCI, PDMP 20 mg/kg i.p. at 10 min, 24 h, 48 h, 72 h) of the same compound?
Answer: The BBB score was 6.9±0.2.

Question: And the BBB score (rat SCI model; Day 15 post-SCI, PDMP treatment stopped at Day 3)?
Answer: The BBB score was 13.9±0.1.

Question: And the “NF-κB DNA binding activity” value (NF-κB; increasing doses of PDMP, LPS/IFNγ 45 min)?
Answer: Its value is “inhibited”.

Question: Which GalT-2 protein levels (GalT-2) does the source give for “AS GalT-2 oligonucleotides: 20-mer antisense oligonucleotide 5′-CGCTTGAGCGCAGACATCTT-3′, SEQ ID NO:1, against rat lactosylceramide synthase (GalT-2) (antisense CGCTTGAGCGCAGACATCTT; chemistry not given here)” here?
Answer: Its GalT-2 protein levels is “diminished protein levels”.

Question: How did the “Reversal of LY-mediated inhibition of TNFα-mediated Ras activation” value (small GTPase Ras; LY 30 μM plus LacCer) turn out when Lactosylceramide [LacCer] was run?
Answer: Its value is “bypassed”.

Question: What about the “Reversal of PDMP-mediated reduction of LPS/IFNγ-mediated Ras activation” value (small GTPase Ras; LacCer plus PDMP 50 μM, LPS/IFNγ 5 min) of the same compound?
Answer: Its value is “fully reversed”.

Question: And the “Reversal of PDMP-mediated inhibition of TNFα-induced Ras activation” value (small GTPase Ras; PDMP 25 μM plus LacCer)?
Answer: The value was “fully reversed”.

Question: And the “Reversal of DMS-mediated inhibition of Ras activation” value (small GTPase Ras; exogenous lipid)?
Answer: The value was “reversed”.

Question: And the “Reversal of PDMP-mediated inhibition of NF-κB DNA binding activity” value (NF-κB; exogenous LacCer)?
Answer: Its value is “reversed”.
